Measured values as given in patent US8067424B2, “Selective inhibitors for cyclin-dependent kinases” (Emory University, priority 2007, dated 2011).
Where two headings read alike, the source gives them in different places.

Legend:
Assay type in all cases: biochemical
GSK3β = GSK3β (Homo sapiens, UniProt P49841); assay: Kinase screen: GSK3b assay
Description: (§1) Generally, the same procedure was used for all assays. Since the total assay volume was 25.5 microliters, 0.5 microliters of inhibitors at 51× assay concentration were added to the plates before any other addition.
(§2) The basic procedure was to add 0.5 microliters inhibitor/control in DMSO to plate. Fifteen microliters of enzyme/substrate/buffer mix were added and incubated for 5 min. Ten microliters MgATP at the relevant concentration were added and incubated for 30 min. The assay was stopped by adding 5 microliters of 3% orthophosphoric acid. The assay was transferred to a p81 filter plate and read in a scintillation counter of 30 sec/well. Note that this assay procedure was not followed for MKK1, which instead involved a two-step assay, and PKC alpha, which required the addition of lipid vesicles.
(50-1000 cpm/pmole) and incubated for 30 min at room temperature. Assays were stopped by addition of 5 μl of 0.5 M (3%) orthophosphoric acid and then harvested onto P81 Unifilter plates with a wash buffer of 50 mM orthophosphoric acid.

PAK4 = PAK4 (Homo sapiens, UniProt O96013); assay: Kinase screen: PAK4 assay
PAK4, sequence (O96013 whole entry, species assumed): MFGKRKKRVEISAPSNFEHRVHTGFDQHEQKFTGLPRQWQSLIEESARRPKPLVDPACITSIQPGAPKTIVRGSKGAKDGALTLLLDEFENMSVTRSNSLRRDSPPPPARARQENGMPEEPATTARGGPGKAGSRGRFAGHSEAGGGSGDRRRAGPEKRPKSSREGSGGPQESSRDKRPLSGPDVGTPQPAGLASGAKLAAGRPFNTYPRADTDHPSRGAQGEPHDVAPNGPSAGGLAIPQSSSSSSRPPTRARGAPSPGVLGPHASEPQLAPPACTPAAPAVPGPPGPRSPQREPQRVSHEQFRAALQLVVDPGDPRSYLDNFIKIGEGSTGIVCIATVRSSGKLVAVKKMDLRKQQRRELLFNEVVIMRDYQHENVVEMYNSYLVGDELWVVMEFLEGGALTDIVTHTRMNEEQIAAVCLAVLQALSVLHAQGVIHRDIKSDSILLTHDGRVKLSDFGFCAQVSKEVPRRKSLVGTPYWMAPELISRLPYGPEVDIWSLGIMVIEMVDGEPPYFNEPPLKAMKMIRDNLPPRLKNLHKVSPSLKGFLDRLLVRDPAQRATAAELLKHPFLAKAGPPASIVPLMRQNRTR
Description: as §1, §2
(§3) PAK4 assay: PAK4 (5-20 mU diluted in 50 mM Tris pH 7.5, 0.1 mM EGTA, 0.1% b-mercaptoethanol, 1 mg/ml BSA) was assayed against a substrate peptide ([…]) (SEQ ID NO: 30) in a final volume of 25.5 μl containing 50 mM Tris pH 7.5, 0.05% b-mercaptoethanol, 300 μM substrate peptide, 10 mM magnesium acetate and 0.005 mM [33P-g-ATP] (50-1000 cpm/pmole) and incubated for 30 min at room temperature. Assays were stopped by addition of 5 μl of 0.5 M (3%) orthophosphoric acid and then harvested onto P81 Unifilter plates with a wash buffer of 50 mM orthophosphoric acid.

PAK6 = PAK6 (Homo sapiens, UniProt Q9NQU5); assay: Kinase screen: PAK6 assay
PAK6, sequence (Q9NQU5 whole entry, species assumed): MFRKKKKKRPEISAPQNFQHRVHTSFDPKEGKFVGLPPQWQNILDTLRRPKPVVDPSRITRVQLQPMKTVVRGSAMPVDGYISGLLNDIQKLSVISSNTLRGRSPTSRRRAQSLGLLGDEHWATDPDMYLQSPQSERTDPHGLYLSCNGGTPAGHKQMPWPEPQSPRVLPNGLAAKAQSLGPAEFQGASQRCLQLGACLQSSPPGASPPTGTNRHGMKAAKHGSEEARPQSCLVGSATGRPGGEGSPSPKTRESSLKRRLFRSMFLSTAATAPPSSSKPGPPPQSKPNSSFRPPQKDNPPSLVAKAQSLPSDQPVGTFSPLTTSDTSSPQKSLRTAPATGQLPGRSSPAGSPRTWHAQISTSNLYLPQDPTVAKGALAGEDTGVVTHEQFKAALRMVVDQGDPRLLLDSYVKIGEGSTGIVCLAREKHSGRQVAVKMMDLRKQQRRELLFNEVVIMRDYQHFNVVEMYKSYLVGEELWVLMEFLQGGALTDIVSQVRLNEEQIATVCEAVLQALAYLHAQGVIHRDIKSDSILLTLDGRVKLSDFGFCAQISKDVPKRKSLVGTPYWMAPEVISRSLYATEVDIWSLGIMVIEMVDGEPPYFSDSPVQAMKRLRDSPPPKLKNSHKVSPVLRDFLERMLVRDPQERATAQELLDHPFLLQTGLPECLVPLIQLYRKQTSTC
Description: as §1, §2
as §3, with “PAK6” for “PAK4”, “0.02” for “0.005”

MELK = MELK (Homo sapiens, UniProt Q14680); assay: Kinase screen: MELK assay
MELK, sequence (Q14680 whole entry, species assumed): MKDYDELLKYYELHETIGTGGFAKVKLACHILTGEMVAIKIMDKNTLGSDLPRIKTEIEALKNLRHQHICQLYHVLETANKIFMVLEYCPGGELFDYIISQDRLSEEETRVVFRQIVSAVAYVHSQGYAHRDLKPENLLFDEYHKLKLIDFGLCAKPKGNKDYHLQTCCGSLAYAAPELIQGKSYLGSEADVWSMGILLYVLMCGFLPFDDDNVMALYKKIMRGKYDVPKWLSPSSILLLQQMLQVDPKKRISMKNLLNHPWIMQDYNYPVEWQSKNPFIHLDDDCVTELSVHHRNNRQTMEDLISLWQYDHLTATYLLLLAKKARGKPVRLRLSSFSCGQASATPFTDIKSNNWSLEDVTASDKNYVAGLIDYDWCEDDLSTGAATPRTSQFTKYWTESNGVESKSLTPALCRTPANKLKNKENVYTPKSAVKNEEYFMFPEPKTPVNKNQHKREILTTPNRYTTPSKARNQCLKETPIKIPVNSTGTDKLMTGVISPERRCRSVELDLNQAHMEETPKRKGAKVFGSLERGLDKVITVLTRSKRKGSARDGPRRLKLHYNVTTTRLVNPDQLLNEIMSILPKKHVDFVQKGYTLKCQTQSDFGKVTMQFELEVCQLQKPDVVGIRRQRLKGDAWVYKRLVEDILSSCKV
Description: as §1, §2
as §3, with “MELK” for “PAK4”, “33)” for “30)”, “200” for “300”, “0.05” for “0.005”

AMPK = assay: Kinase screen: AMPK assay; details: for mean activity remaining (as a percentage of the original activity), AMPK: 10 micromolar compound
Description: as §1, §2
AMPK assay: AMPK (5-20 mU diluted in 50 mM Hepes pH 7.5, 1 mM DTT, 0.02% Brij35) was assayed against SAMS substrate peptide ([…]) (SEQ ID NO: 11) in a final volume of 25.5 μl containing 50 mM Hepes pH 7.5, 1 mM DTT, 0.02% Brij35, 0.4 mM SAMS peptide, 0.196 mM AMP, 10 mM magnesium acetate and 0.05 mM [33P-g-ATP] (50-1000 cpm/pmole) and incubated for 30 min at room temperature. Assays were stopped by addition of 5 μl of 0.5 M (3%) orthophosphoric acid and then harvested onto P81 Unifilter plates with a wash buffer of 50 mM orthophosphoric acid.

MST2 = biological target: T1, MST2 (Homo sapiens, UniProt Q13188); assay: Kinase screen: MST2 assay
T1 sequence (Q13188 1-491): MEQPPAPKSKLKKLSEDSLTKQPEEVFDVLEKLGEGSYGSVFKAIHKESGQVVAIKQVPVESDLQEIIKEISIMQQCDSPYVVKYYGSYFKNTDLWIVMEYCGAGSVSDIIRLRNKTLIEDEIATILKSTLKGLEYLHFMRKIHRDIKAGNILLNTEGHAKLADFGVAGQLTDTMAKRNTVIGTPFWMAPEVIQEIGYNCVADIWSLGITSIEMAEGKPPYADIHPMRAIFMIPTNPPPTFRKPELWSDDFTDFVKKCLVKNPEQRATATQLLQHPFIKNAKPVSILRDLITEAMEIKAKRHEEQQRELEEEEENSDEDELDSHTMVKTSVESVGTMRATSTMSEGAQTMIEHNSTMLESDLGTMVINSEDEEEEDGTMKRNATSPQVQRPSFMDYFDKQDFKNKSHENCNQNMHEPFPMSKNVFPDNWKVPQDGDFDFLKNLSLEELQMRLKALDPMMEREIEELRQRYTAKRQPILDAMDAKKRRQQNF
Description: as §1, §2
MST2 assay: MST2 (5-20 mU diluted in 50 mM Tris pH 7.5, 0.1 mM EGTA, 0.1% b-mercaptoethanol, 100 μM Vanadate) was assayed against MBP in a final volume of 25.5 μl containing 50 mM Tris pH 7.5, 0.05% b-mercaptoethanol, 0.33 mg/ml MBP, 10 mM magnesium acetate and 0.02 mM [33P-g-ATP] (50-1000 cpm/pmole) and incubated for 30 min at room temperature. Assays were stopped by addition of 5 μl of 0.5 M (3%) orthophosphoric acid and then harvested onto P81 Unifilter plates with a wash buffer of 50 mM orthophosphoric acid.

[1] = 10 micromolar compound, read-out: mean activity remaining (as a percentage of the original activity), GSK 3b
[2] = 10 micromolar compound, read-out: mean activity remaining (as a percentage of the original activity), PAK4
[3] = 10 micromolar compound, read-out: mean activity remaining (as a percentage of the original activity), PAK6
[4] = 10 micromolar compound, read-out: mean activity remaining (as a percentage of the original activity), MELK
[5] = 10 micromolar compound, read-out: mean activity remaining (as a percentage of the original activity), MST2

GSK3β, sequence (P49841 whole entry, species assumed): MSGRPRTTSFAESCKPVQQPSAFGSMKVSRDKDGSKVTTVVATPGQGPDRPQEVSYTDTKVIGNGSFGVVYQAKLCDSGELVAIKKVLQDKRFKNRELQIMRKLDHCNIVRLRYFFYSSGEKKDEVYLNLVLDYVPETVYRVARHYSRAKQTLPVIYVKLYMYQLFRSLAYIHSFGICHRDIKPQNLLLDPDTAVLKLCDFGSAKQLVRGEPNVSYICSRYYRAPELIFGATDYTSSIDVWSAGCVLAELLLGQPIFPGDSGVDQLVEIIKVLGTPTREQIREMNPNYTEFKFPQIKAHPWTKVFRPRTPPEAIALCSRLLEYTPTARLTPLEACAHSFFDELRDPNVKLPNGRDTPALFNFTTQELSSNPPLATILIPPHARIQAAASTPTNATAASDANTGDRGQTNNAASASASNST

Row | SMILES | remaining activity at 10 µM (GSK3β; GSK3β, 10 μM, read-out: Mean Remaining Enzyme Activity (%)) [%] | remaining activity at 10 µM (PAK4; PAK4, 10 μM, read-out: Mean Remaining Enzyme Activity (%)) [%] | remaining activity at 10 µM (PAK6; PAK6, 10 μM, read-out: Mean Remaining Enzyme Activity (%)) [%] | remaining activity at 10 µM (MELK; MELK, 10 μM, read-out: Mean Remaining Enzyme Activity (%)) [%] | Mean Remaining Enzyme Activity (%) (AMPK; AMPK, 10 μM) | remaining activity at 10 µM (MST2; MST2, 10 μM, read-out: Mean Remaining Enzyme Activity (%)) [%] | remaining activity at 10 µM (GSK3β; [1]) [%] | remaining activity at 10 µM (PAK4; [2]) [%] | remaining activity at 10 µM (PAK6; [3]) [%] | remaining activity at 10 µM (MELK; [4]) [%] | mean activity remaining (as a percentage of the original activity), AMPK (AMPK) [%] | remaining activity at 10 µM (MST2; [5]) [%] | mean activity remaining (as a percentage of the original activity), GSK 3b (GSK3β; 10 micromolar compound) [%] | mean activity remaining (as a percentage of the original activity), PAK4 (PAK4; 10 micromolar compound) [%] | mean activity remaining (as a percentage of the original activity), PAK6 (PAK6; 10 micromolar compound) [%] | mean activity remaining (as a percentage of the original activity), MELK (MELK; 10 micromolar compound) [%] | mean activity remaining (as a percentage of the original activity), MST2 (MST2; 10 micromolar compound) [%]
1 | CC(C)c1cnn2c(NCc3ccccc3)cc(NCCCCCCCN)nc12 [BS-181] | 112 | 75 | 95 | 63 | 122 | 112 |  |  |  |  |  |  |  |  |  |  | 
2 | C=C[C@H](CO)Nc1cc(NCc2ccccc2)n2ncc(C(C)C)c2n1 [ICEC0065] |  |  |  |  |  |  | 92 | 82 | 82 | 90 | 85 | 87 |  |  |  |  | 
3 | CC[C@H](CO)Nc1cc(NCc2ccccc2)n2ncc(C(C)C)c2n1 [ICEC0067] |  |  |  |  |  |  | 72 | 75 | 78 | 75 | 84 | 89 |  |  |  |  | 
4 | CC(C)c1cnn2c(NCc3ccccc3)cc(N[C@@H](CO)[C@H](O)CO)nc12 [ICEC0318, (3S)-3-(7-(Benzylamino)-3-isopropylpyrazolo[1,5-a]pyrimidin-5-ylamino)butane-1,2,4-triol] |  |  |  |  |  |  | 63 | 55 | 85 | 88 | 88 | 86 |  |  |  |  | 
5 | CC(C)c1cnn2c(NCc3ccccc3F)cc(NCCCCCN)nc12 [ICEC-0232] |  |  |  |  |  |  |  |  |  |  | 75 |  | 70 | 58 | 85 | 62 | 82
